This note sets out measurements from patent US10392404B2, “Compounds and compositions as kinase inhibitors” (NOVARTIS AG, priority 2014, dated 2019).

Structures are written as SMILES.

In one test the target is T1, C-RAF (Homo sapiens, UniProt P04049, Y340E/Y341E).
T1 construct: His tag (implied by nickel chromatography) (cleaved yes); StrepII tag (cleaved yes); made in house; host or cells: Sf9 insect cells (baculovirus), CRAF and h14-3-3 zeta co-expressed; MEK1 substrate from E. coli
The test is described as follows: In vitro Raf activity determination (Alpha Screen, biotinylated kinase-dead MEK1 substrate), C-Raf. The settings on record: c-Raf approximately 4 nM; ATP 1 μM; pre-incubation 60 minutes; reaction 1 hour at room temperature. The class given is biochemical. In a few lines:
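AlphaScreen read-out of MEK phosphorylation using an anti-phospho-MEK1/2 antibody after a 1 hour room-temperature reaction at 1 μM ATP. Enzyme: approximately 4 nM Sf9-expressed full-length activated C-Raf (Y340E/Y341E, with 14-3-3ζ) on approximately 10 nM biotinylated K97R MEK1, after 60 min compound preincubation. IC50 by non-linear fit.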

Another test deals with T2, b-Raf (V600E) (Homo sapiens, UniProt P15056, V600E).
T2 construct: made in house
T2 sequence (P15056 whole entry V600E): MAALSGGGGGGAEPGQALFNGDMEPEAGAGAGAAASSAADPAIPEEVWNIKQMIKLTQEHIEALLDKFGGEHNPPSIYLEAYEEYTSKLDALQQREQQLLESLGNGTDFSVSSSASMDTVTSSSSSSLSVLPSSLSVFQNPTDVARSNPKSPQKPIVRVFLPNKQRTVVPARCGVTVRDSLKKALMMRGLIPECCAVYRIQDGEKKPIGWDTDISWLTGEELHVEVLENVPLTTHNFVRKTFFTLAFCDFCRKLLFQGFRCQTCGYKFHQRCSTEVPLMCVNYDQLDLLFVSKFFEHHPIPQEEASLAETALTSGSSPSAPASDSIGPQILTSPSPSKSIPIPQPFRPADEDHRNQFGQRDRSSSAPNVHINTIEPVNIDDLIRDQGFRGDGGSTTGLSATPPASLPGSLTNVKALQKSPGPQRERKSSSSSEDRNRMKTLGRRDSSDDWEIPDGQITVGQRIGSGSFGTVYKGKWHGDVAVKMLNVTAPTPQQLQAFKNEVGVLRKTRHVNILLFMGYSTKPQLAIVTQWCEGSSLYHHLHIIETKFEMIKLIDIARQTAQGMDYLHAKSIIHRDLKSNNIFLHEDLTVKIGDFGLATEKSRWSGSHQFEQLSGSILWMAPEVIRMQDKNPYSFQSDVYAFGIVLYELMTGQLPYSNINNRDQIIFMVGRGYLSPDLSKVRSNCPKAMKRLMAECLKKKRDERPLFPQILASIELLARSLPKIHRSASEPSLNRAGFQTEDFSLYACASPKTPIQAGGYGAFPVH
In words: In vitro Raf activity determination (Alpha Screen, biotinylated kinase-dead MEK1 substrate), B-Raf. Format: biochemical. The settings on record: b-Raf (V600E) approximately 4 pM; ATP 10 μM; pre-incubation 60 minutes; reaction 3 hours at room temperature. In a few lines:
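IC50 from non-linear regression of AlphaScreen phospho-MEK signal (anti-p-MEK1/2 antibody). b-Raf(V600E), about 4 pM, phosphorylated ~10 nM biotinylated K97R MEK1 with 10 μM ATP for 3 h at room temperature after 60 min compound pre-incubation; buffer pH 7.5 Tris, 15 mM MgCl2, 1 mM DTT.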

T1 sequence (P04049 whole entry Y340E/Y341E): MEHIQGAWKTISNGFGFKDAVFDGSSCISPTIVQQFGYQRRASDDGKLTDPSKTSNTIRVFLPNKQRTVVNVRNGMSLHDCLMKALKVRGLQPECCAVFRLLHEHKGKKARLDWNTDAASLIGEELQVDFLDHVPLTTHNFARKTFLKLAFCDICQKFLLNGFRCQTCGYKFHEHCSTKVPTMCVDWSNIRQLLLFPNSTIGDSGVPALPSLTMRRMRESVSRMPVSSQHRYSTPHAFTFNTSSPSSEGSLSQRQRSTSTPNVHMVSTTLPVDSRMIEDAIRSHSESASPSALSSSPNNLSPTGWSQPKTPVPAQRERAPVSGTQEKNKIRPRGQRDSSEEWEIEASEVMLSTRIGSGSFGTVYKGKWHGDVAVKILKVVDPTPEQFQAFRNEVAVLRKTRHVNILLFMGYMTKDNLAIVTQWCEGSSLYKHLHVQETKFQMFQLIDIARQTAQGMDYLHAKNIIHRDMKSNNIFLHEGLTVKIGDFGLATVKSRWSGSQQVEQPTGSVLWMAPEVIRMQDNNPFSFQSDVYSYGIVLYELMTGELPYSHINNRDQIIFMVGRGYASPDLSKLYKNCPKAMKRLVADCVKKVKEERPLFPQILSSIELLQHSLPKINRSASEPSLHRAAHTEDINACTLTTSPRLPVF
T1 sequence (P63104 whole entry partner): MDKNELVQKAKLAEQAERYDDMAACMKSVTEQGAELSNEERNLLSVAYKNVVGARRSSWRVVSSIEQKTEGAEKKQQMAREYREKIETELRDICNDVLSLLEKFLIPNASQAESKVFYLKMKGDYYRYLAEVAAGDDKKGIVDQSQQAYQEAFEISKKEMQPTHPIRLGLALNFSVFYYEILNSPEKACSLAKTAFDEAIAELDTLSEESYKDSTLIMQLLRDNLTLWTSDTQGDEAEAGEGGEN

Regarding `Cc1ccc(NC(=O)c2ccnc(C(C)(C)C#N)c2)cc1-c1cnc(C(C)C)c(C#N)c1` [Example 122, N-(3-(5-cyano-6-isopropylpyridin-3-yl)-4-methylphenyl)-2-(2-cyanopropan-2-yl)isonicotinamide], the IC50 at C-RAF was determined as 0.994 nM; against b-Raf (V600E) it was 2.8 nM.

For `Cc1ccc(NC(=O)c2ccnc(C(F)F)c2)cc1-c1cnc(N2CC(C)(O)C2)c(C#N)c1` [Example 216, N-(3-(5-cyano-6-(3-hydroxy-3-methylazetidin-1-yl)pyridin-3-yl)-4-methylphenyl)-2-(difluoromethyl) isonicotinamide], the figures for the IC50 against C-RAF and on b-Raf (V600E) were 0.691 nM and 4.73 nM, respectively.

For `Cc1ncc(NC(=O)c2cc(C(C)(C)F)ccn2)cc1-c1cnc(N2CC(C)(O)C2)c(C#N)c1` [Example 243, N-(5′-cyano-6′-(3-hydroxy-3-methylazetidin-1-yl)-2-methyl-[3,3′-bipyridin]-5-yl)-4-(2-fluoropropan-2-yl)picolinamide], the half-inhibitory concentration (IC50) came out at 1.03 nM against C-RAF and 9.83 nM against b-Raf (V600E).

`CCn1cc(C(=O)Nc2cnc(C)c(-c3cnc(N(C)C)c(C#N)c3)c2)c(C)n1` [Example 263, N-(5′-cyano-6′-(dimethylamino)-2-methyl-[3,3′-bipyridin]-5-yl)-1-ethyl-3-methyl-1H-pyrazole-4-carboxamide]: the results for the IC50 against C-RAF and at b-Raf (V600E) were 55.3 nM and 884 nM, respectively.

`Cc1ncc(NC(=O)c2ccnc(C3CC3)c2)cc1-c1cnc(N2CCOCC2)c(C#N)c1` [Example 134, N-(5′-cyano-2-methyl-6′-morpholino-[3,3′-bipyridin]-5-yl)-2-cyclopropyl-isonicotinamide]: the IC50 against C-RAF is 0.236 nM; at b-Raf (V600E) it was 1.46 nM.

Turning to `Cc1ccc(C(=O)Nc2cccc(C(F)(F)F)c2)cc1-c1cncc(C#N)c1` [Example 27, 3-(5-cyanopyridin-3-yl)-4-methyl-N-(3-(trifluoromethyl)phenyl)benzamide], the 50% inhibitory concentration (IC50) was 1.65 nM against C-RAF and 21.1 nM at b-Raf (V600E).

As to `Cc1ccc(NC(=O)c2ccnc(C(F)(F)F)c2)cc1-c1cnc(N2CCNCC2)c(C#N)c1` [Example 153, N-(3-(5-cyano-6-(piperazin-1-yl)pyridin-3-yl)-4-methylphenyl)-2-(trifluoromethyl) isonicotinamide], the IC50 amounted to 0.15 nM against C-RAF and 0.7 nM against b-Raf (V600E).

On to `Cc1ncc(NC(=O)c2ccnc(C(C)(C)C#N)c2)cc1-c1cnc(-n2ccccc2=O)c(C#N)c1` [Example 53, N-(3′-cyano-2″- methyl-2-oxo-2H-[1,2′:5′,3″- terpyridin]-5″-yl)-2 (2-cyanopropan-2-yl)isonicotinamide], for which the half-inhibitory concentration (IC50) on C-RAF is 64 nM; against b-Raf (V600E) it was 285 nM.

With `Cc1ncc(NC(=O)c2cccc(C(F)F)c2)cc1-c1cnc(N2CC(C)(O)C2)c(C#N)c1` [Example 184, N-(5′-cyano-6′-(3-hydroxy-3-methylazetidin-1-yl)-2-methyl-[3,3′-bipyridin]-5-yl)-3-(difluoromethyl) benzamide], the figures for the half-inhibitory concentration (IC50) on C-RAF and on b-Raf (V600E) were 1.14 nM and 7.88 nM, respectively.

As for `Cc1ncc(NC(=O)c2ccnc(C(F)(F)F)c2)cc1-c1cnc(N2CCOCC2)c(C#N)c1` [Example 68, N-(5′-cyano-2-methyl-6′-morpholino-[3,3′-bipyridin]-5-yl)-2-(trifluoromethyl) isonicotinamide], the concentration for half-maximal inhibition (IC50) against C-RAF came out at 0.223 nM; against b-Raf (V600E), 0.902 nM.

With `Cc1ncc(NC(=O)c2ccnc(C(C)(C)C#N)c2)cc1-c1cnc(NC2CCOC2)c(C#N)c1` (stereo in doubt) [Example 78b, (R)-N-(5′-cyano-2-methyl-6′-((tetrahydrofuran-3-yl)amino)-[3,3′-bipyridin]-5-yl)-2-(2-cyanopropan-2-yl)isonicotinamide], the IC50 against C-RAF stood at 2.41 nM; at b-Raf (V600E) it was 10.3 nM.

Consider `Cc1ccc(NC(=O)c2ccnc(S(C)(=O)=O)c2)cc1-c1cnc(N2CCNCC2)c(C#N)c1` [Example 152, N-(3-(5-cyano-6-(piperazin-1-yl)pyridin-3-yl)-4-methylphenyl)-2-(methylsulfonyl) isonicotinamide], for which the IC50 on C-RAF turned out to be 0.702 nM; on b-Raf (V600E) it was 5.68 nM.

Consider `Cc1ncc(NC(=O)c2ccnc(C(C)(C)O)c2)cc1-c1cnc(N2CC(C)(O)C2)c(C#N)c1` [Example 185, N-(5′-cyano-6′-(3-hydroxy-3-methylazetidin-1-yl)-2-methyl-[3,3′-bipyridin]-5-yl)-2-(2-hydroxypropan-2-yl)isonicotinamide], for which the IC50 was found to be 11 nM on C-RAF and 61 nM at b-Raf (V600E).

For `COCCNc1ncc(-c2cc(NC(=O)c3cnnc(C(F)(F)F)c3)cnc2C)cc1C#N` [Example 203, N-(5′-cyano-6′-((2-methoxyethyl)amino)-2-methyl-[3,3′-bipyridin]-5-yl)-6-(trifluoromethyl) pyridazine-4-carboxamide], the concentration for half-maximal inhibition (IC50) at C-RAF is 8.17 nM; at b-Raf (V600E), 48.2 nM.

Turning to `Cc1ccc(NC(=O)c2cnnc(C(F)(F)F)c2)cc1-c1cnc(NC2CCOCC2)c(C#N)c1` [Example 174, N-(3-(5-cyano-6-((tetrahydro-2H-pyran-4-yl)amino)pyridin-3-yl)-4-methylphenyl)-6-(trifluoromethyl) pyridazine-4-carboxamide], the half-inhibitory concentration (IC50) worked out at 0.177 nM against C-RAF and 0.576 nM against b-Raf (V600E).

Turning to `Cc1ncc(NC(=O)c2cccc(C(F)(F)F)c2)cc1-c1cnc(S(C)(=O)=O)c(C#N)c1` [Example 44, N-(5′-cyano-2-methyl-6′-(methylsulfonyl)-[3,3′-bipyridin]-5-yl)-3-(trifluoromethyl) benzamide], the IC50 at C-RAF was determined as 2.8 nM; against b-Raf (V600E), 17.3 nM.

For the molecule `Cc1ncc(NC(=O)c2ccnc(C(C)(C)C#N)c2)cc1-c1cnc(NC2COC2)c(C#N)c1` [Example 80, N-(5′-cyano-2-methyl-6′-(oxetan-3-ylamino)-[3,3′-bipyridin]-5-yl)-2-(2-cyanopropan-2-yl)isonicotinamide], the IC50 against C-RAF came out at 1.93 nM; against b-Raf (V600E), 12.6 nM.

For `Cc1ncc(NC(=O)c2ccnc(C(C)(C)C#N)c2)cc1-c1cnc(N2CCS(=O)(=O)CC2)c(C#N)c1` [Example 55, N-(5′-cyano-6′-(1,1-dioxidothiomorpho-lino)-2-methyl-[3,3′-bipyridin]-5-yl)-2-(2-cyanopropan-2-yl)isonicotinamide], the IC50 against C-RAF came to 2.36 nM; at b-Raf (V600E), 11.6 nM.

`Cc1ncc(NC(=O)c2cc(C3CC3)nn2C)cc1-c1cnc(N(C)C)c(C#N)c1` [Example 266, N-(5′-cyano-6′-(dimethylamino)-2-methyl-[3,3′-bipyridin]-5-yl)-3-cyclopropyl-1-methyl-1H-pyrazole-5-carboxamide]: the half-inhibitory concentration (IC50) amounted to 30.8 nM against C-RAF and 404 nM against b-Raf (V600E).

As to `Cc1ccc(NC(=O)c2cccc(S(C)(=O)=O)c2)cc1-c1cnc(N2CCOCC2)c(C#N)c1` [Example 157, N-(3-(5-cyano-6-morpholinopyridin-3-yl)-4-methylphenyl)-(methylsulfonyl) benzamide], the figures for the half-maximal inhibitory concentration (IC50) at C-RAF and at b-Raf (V600E) were 0.0559 nM and 0.304 nM, respectively.

With `Cc1ncc(NC(=O)c2ccnc(C(C)(C)C#N)c2)cc1-c1cnc(N)c(C#N)c1` [Example 38, N-(6′-amino-5′-cyano-2-methyl-[3,3′-bipyridin]-5-yl)-2-(2-cyanopropan-2-yl)isonicotinamide], the IC50 worked out at 1.81 nM at C-RAF and 16.4 nM against b-Raf (V600E).

As to `COCCNc1ncc(-c2cc(NC(=O)c3ccnc(C(C)(C)O)c3)ccc2C)cc1C#N` [Example 209, N-(3-(5-cyano-6-((2-methoxyethyl)amino)pyridin-3-yl)-4-methylphenyl)-2-(2-hydroxypropan-2-yl)isonicotinamide], the IC50 against C-RAF turned out to be 0.777 nM; on b-Raf (V600E), 4.17 nM.

For the molecule `Cc1ncc(NC(=O)c2ccnc(C(F)F)c2)cc1-c1cnc(N2CC(C)(O)C2)c(C#N)c1` [Example 182, N-(5′-cyano-6′-(3-hydroxy-3-methylazetidin-1-yl)-2-methyl-[3,3′-bipyridin]-5-yl)-2-(difluoromethyl) isonicotinamide], the IC50 worked out at 7.49 nM at C-RAF and 58.8 nM at b-Raf (V600E).

For `Cc1ncc(NC(=O)c2ccnc(C(F)F)c2)cc1-c1cnc(N2CCOCC2)c(C#N)c1` [Example 136, N-(5′-cyano-2-methyl-6′-morpholino-[3,3′-bipyridin]-5-yl)-2-(difluoromethyl) isonicotinamide], the half-inhibitory concentration (IC50) came out at 0.153 nM at C-RAF and 1.16 nM at b-Raf (V600E).

Turning to `COCCNc1ncc(-c2cc(NC(=O)c3ccnc(C(F)F)c3)cnc2C)cc1C#N` [Example 196, N-(5′-cyano-6′-((2-methoxyethyl)amino)-2-methyl-[3,3′-bipyridin]-5-yl)-2-(difluoromethyl) isonicotinamide], the IC50 against C-RAF amounted to 2.14 nM; against b-Raf (V600E), 16.1 nM.

For `Cc1ncc(NC(=O)c2cccc(C(F)(F)F)c2)cc1-c1cnc(OCCO)c(C#N)c1` [Example 99, N-(5′-cyano-6′-(2-hydroxyethoxy)-2-methyl-[3,3′-bipyridin]-5-yl)-3-(trifluoromethyl) benzamide], the IC50 against C-RAF came to 0.712 nM; on b-Raf (V600E) it was 5.8 nM.

For `Cc1ccc(NC(=O)c2cnnc(C(F)(F)F)c2)cc1-c1cnc(N2CC(C)(O)C2)c(C#N)c1` [Example 213], the results for the IC50 on C-RAF and against b-Raf (V600E) were 1.78 nM and 8.79 nM, respectively.

The term IC50 denotes the concentration needed to halve the response being measured. High values mean weaker potency, low ones greater potency.
